Values quoted from earlier work as cited in patent US10156556B2, “Method for determining ecological risks of polycyclic aromatic hydrocarbon in water body” (priority 2013, dated 2018).

Conditions: relative to benzoapyrene; Nisbet and Lagoy 1992; cited from earlier work

c1ccc2c(c1)-c1cccc3cccc-2c13 [Flu]
Toxic equivalency factor: 0.001
